Columns and labels:
human STING WT (R232) = molecular target: T1, human STING WT (R232); assay: Human STING HTRF binding assay (competitive, Cisbio 64BDSTGPEG); settings: 6His tagged human STING WT R232, competition with STING ligand-d2
T1 construct: purchased Cisbio 64BDSTGPEG
Protocol: Binders to human STING WT (R232) were identified using a competitive HTRF assay format (Cisbio 64BDSTGPEG), which uses d2-labeled STING ligand, a 6His tagged human STING protein, and an anti 6His Cryptate-labeled antibody. Compounds compete with the STING ligand-d2 and thereby prevents FRET from occurring, which can be measured by an EnVision™ reader (PerkinElmer).
Assay method: Compounds were delivered as 10 mM DMSO solution, serially diluted by an Agilent Bravo Workstation and transferred to the 384 well assay plate (Perkin Elmer #6005359) using a Cybiwell dispenser. Typically, 8 concentrations were used with the highest concentration at 10 μM or 1 μM in the final assay volume followed by ^˜1:5 dilution steps. DMSO concentration was set to 1% in the final assay volume. The 384 well assay plate contained 20 test compounds and DMSO in column 23 and 24. A cGAMP standard dilution row was prepared according to the manufacturer and transferred to each assay plate. After transfer of compound solution or dilution buffer for negative (high) and positive (low) controls, 5 μl of the human STING protein (cyclic binding domain (residues 138-379) of the WT R232 human version, fused to a 6 His tag at the Nter part; 1:50 dilution in detection buffer) were dispensed to all wells except of the positive control, which received detection buffer only. Plates were the centrifuged for 20 sec at 1000 rpm. After that, 10 μl of Anti-6His-Cryptate antibody/Sting ligand-d2 mix was added to all wells using a Multidrop combi dispenser, followed by another 20 sec/1000 rpm centrifugation step. After an incubation of the plates for 180 min at room temperature, […] at […] (HTRF ratio) was measured using an Envison Reader (PerkinElmer)
Data evaluation and calculation: For data evaluation and calculation, HTRF ratios were calibrated using the cGAMP standard curve. After that, the measurement of the low control was set as 0% control and the measurement of the high control was set as 100% control. The IC50 values were calculated using the standard 4 parameter logistic regression formula. Calculation: [y=(a−d)/(1+(x/c)^b)+d], a=low value, d=high value; x=conc M; c=IC50 M; b=slope;

STING = system: T2, STING; assay: Human whole blood assay (HWBA), cGAMP-stimulated IFNα2α production; type: cell-based; settings: human whole blood stimulated by cGAMP
T2 construct: from tissue; host or cells: human whole blood from healthy donors
Protocol: For the detection of STING inhibition in physiological environment human whole blood was stimulated by the cyclic dinucleotide cGAMP. Pathway activity was monitored by measuring the IFNα2α production.
Assay method: Compounds were delivered as 10 mM DMSO solution and serial diluted and transferred to the 96-well Cell culture Plate (Corning #3595), prefilled with 20 μl OptiMEM (Gibco #11058-021) in each well, using an Echo acoustic dispenser. Typically, 8 concentrations were used with the highest concentration at 10 μM in the final assay volume followed by ^˜1:5 dilution steps. DMSO concentration was set to 0.1% in the final assay volume. The 96 well assay plate contained 9 test compounds, a reference compound and DMSO in control wells.
Collection of human whole blood from 3 or more healthy donors (male or female, no medication for 7 days, exception contraceptive and thyroxine) as Na-citrate blood (e.g. 3.8% in Monovettes from Sarstedt) is conducted in parallel. Whole blood was kept at room temperature for a maximum of 3 hours after collection until use in the assay.
160 μl of the whole blood samples were transferred to each well of the 96-well assay plates filled with compound/OptiMEM. All assay plates are prepared as duplicates with blood from different donors. Blood plates were kept at room temperature for 60 minutes and continuous shaking with 450 rpm, covered with the lid, but not sealed.
A 10× cGAMP assay solution was diluted from a 2 mM stock solution in 1×HBSS immediately before use at room temperature. 20 μl of the 10× cGAMP/HBSS were added to all compound and all high control wells, whereas HBSS only was added to all low control wells.
After covering assay plates with aera seals and the lid, blood plates were kept at room temperature for 30 minutes and continuous shaking with 450 rpm, followed by an overnight incubation of 22 h at 37° C. in the incubator, without shaking.
For the detection of IFNα-2α in human plasma, the biotinylated capture antibody (Antibody set IFNA2, Meso Scale Diagnostics #B21VH-3, including coating and capture antibody) was diluted 1:17.5 in Diluent 100 (Meso Scale Diagnostics #R50AA-4, according to the manufacturer. U-Plex MSD GOLD 96-well Small Spot Streptavidin SECTOR Plates (Meso Scale Diagnostics #L45SA-5) were coated with 25 μl diluted capture antibody. Coated plates were incubated for 60 min at room temperature under continuous shaking at 700 rpm. MSD IFNα-2α plates were washed three times with 150 μl wash buffer (1×HBSS, 0.05% Tween).
After blocking the plates with 100 μl block solution/well (1×HBSS with 0.2% Tween, 2% BSA) for 60 min at room temperature and continuous shaking at 700 rpm, plates were emptied as dry as possible by dumping just before continuing with the human plasma. Whole Blood assay plates were centrifuged at 1600 rpm for 10 minutes. 25 μl of supernatant was transferred with a pipetting robotics from each whole blood plate to the corresponding IFNα-2α plate. Plates were sealed with microplate seals and kept at room temperature again under continuous shaking at 700 rpm for two hours. Next MSD IFNα-2α plates were washed three times with 150 μl wash buffer (1×HBSS, 0.05% Tween), before adding 25 μl MSD SULFO-TAG IFNα-2α Antibody solution (1:100 diluted in Diluent 3 (Meso Scale Diagnostics #R50AP-2) to each well of the plates. Afterwards plates were sealed with microplate seals and kept at room temperature again under continuous shaking at 700 rpm for two hours. Finally, MSD IFNα-2α plates were washed three times with 150 μl wash buffer (1×HBSS, 0.05% Tween). 150 μl 2× Read buffer was added to each well and plates were immediately measured with the MSD Sector S600 Reader using the vendor barcode.
Data evaluation and calculation: For data evaluation and calculation, % control calculation of each well was based on the mean of high (cGAMP stimulated control) and mean of low (unstimulated control) controls by using the following formula: […]

CC[P@](C)(=O)c1ccc(-c2nc(-c3cccc4nn(-c5cc(C(F)(F)F)n(C)n5)cc34)c(C3CC3)n2C)c(OC(F)(F)F)c1 [Example 10, 4-(5-cyclopropyl-2-{4-[(S)-ethyl(methyl)phosphoryl]-2-(trifluoromethoxy)phenyl}-1-methyl-1H-imidazol-4-yl)-2-[1-methyl-5-(trifluoromethyl)-1H-pyrazol-3-yl]-2H-indazole]
IC50 (human STING WT (R232)): 31.9 nM | IC50 (STING): 78 nM

COc1nn(C2CC2)cc1-n1cc2c(-c3nc(-c4ccc(C(=O)N(C)C)cc4OC(F)(F)F)n(C)c3C3CC3)cccc2n1 [Example 15, 4-{5-cyclopropyl-4-[2-(1-cyclopropyl-3-methoxy-1H-pyrazol-4-yl)-2H-indazol-4-yl]-1-methyl-1H-imidazol-2-yl}-N,N-dimethyl-3-(trifluoromethoxy)benzamide]
IC50 (human STING WT (R232)): 32.9 nM | IC50 (STING): 110 nM

COc1nn(C2CC2)cc1-n1cc2c(-c3nn(-c4ccc(P(C)(C)=O)cc4C)c(C)c3C(C)C)cccc2n1 [Example 9, 2-(1-cyclopropyl-3-methoxy-1H-pyrazol-4-yl)-4-{1-[4-(dimethylphosphoryl)-2-methylphenyl]-5-methyl-4-(propan-2-yl)-1H-pyrazol-3-yl}-2H-indazole]
IC50 (human STING WT (R232)): 17.6 nM | IC50 (STING): 1500 nM

COc1nn(C)cc1-n1cc2c(-c3nc(-c4ccc(C(=O)N(C)C)cc4OC(F)(F)F)n(C)c3C3CC3)cccc2n1 [Example 3, 4-{5-cyclopropyl-4-[2-(3-methoxy-1-methyl-1H-pyrazol-4-yl)-2H-indazol-4-yl]-1-methyl-1H-imidazol-2-yl}-N,N-dimethyl-3-(trifluoromethoxy)benzamide]
IC50 (human STING WT (R232)): 122 nM | IC50 (STING): 2600 nM

CCP(=O)(CC)c1ccc(-c2nc(-c3cccc4nn(-c5cc(C(F)(F)F)n(C)n5)cc34)c(C3CC3)n2C)c(OC(F)(F)F)c1 [Example 17, 4-{5-cyclopropyl-2-[4-(diethylphosphoryl)-2-(trifluoromethoxy)phenyl]-1-methyl-1H-imidazol-4-yl}-2-[1-methyl-5-(trifluoromethyl)-1H-pyrazol-3-yl]-2H-indazole]
IC50 (human STING WT (R232)): 48.1 nM | IC50 (STING): 89 nM

CC[P@](C)(=O)c1ccc(-c2nc(-c3cccc4nn(-c5cc(C(F)F)n(C)n5)cc34)c(C3CC3)n2C)c(OC(F)(F)F)c1 [Example 7, 4-(5-cyclopropyl-2-{4-[(S)-ethyl(methyl)phosphoryl]-2-(trifluoromethoxy)phenyl}-1-methyl-1H-imidazol-4-yl)-2-[5-(difluoromethyl)-1-methyl-1H-pyrazol-3-yl]-2H-indazole]
IC50 (human STING WT (R232)): 19.7 nM | IC50 (STING): 57 nM

COc1nn(C2CC2)cc1-n1cc2c(-c3nc(-c4ccc(C(N)=O)cc4OC(F)(F)F)n(C)c3C3CC3)cccc2n1 [Example 16, 4-{5-cyclopropyl-4-[2-(1-cyclopropyl-3-methoxy-1H-pyrazol-4-yl)-2H-indazol-4-yl]-1-methyl-1H-imidazol-2-yl}-3-(trifluoromethoxy)benzamide]
IC50 (human STING WT (R232)): 13.8 nM | IC50 (STING): 35 nM

Cn1nc(-n2cc3c(-c4nc(-c5ccc(P(C)(C)=O)cc5OC(F)(F)F)n(C)c4C4CC4)cccc3n2)cc1C(F)F [Example 2, 4-{5-cyclopropyl-2-[4-(dimethylphosphoryl)-2-(trifluoromethoxy)phenyl]-1-methyl-1H-imidazol-4-yl}-2-[5-(difluoromethyl)-1-methyl-1H-pyrazol-3-yl]-2H-indazole]
IC50 (human STING WT (R232)): 25.4 nM | IC50 (STING): 210 nM

COc1nn(CC(C)(C)O)cc1-n1cc2c(-c3nc(-c4ccc(C(N)=O)cc4OC(F)(F)F)n(C)c3C3CC3)cccc2n1 [Example 11, 4-(5-cyclopropyl-4-{2-[1-(2-hydroxy-2-methylpropyl)-3-methoxy-1H-pyrazol-4-yl]-2H-indazol-4-yl}-1-methyl-1H-imidazol-2-yl)-3-(trifluoromethoxy)benzamide]
IC50 (human STING WT (R232)): 42.3 nM | IC50 (STING): 880 nM

CC[P@](C)(=O)c1ccc(-c2nc(-c3cccc4[nH]c(-c5cc(C(F)(F)F)n(C)n5)nc34)c(C3CC3)n2C)c(OC(F)(F)F)c1 [Example 18, 4-(5-cyclopropyl-2-{4-[(S)-ethyl(methyl)phosphoryl]-2-(trifluoromethoxy)phenyl}-1-methyl-1H-imidazol-4-yl)-2-[1-methyl-5-(trifluoromethyl)-1H-pyrazol-3-yl]-1H-1,3-benzodiazole]
IC50 (human STING WT (R232)): 26.5 nM | IC50 (STING): 87 nM

CC[P@](C)(=O)c1ccc(-c2nc(-c3cccc4nn(-c5cc(C6CC6)n(C)n5)cc34)c(C3CC3)n2C)c(OC(F)(F)F)c1 [Example 19, 2-(5-cyclopropyl-1-methyl-1H-pyrazol-3-yl)-4-(5-cyclopropyl-2-{4-[(S)-ethyl(methyl)phosphoryl]-2-(trifluoromethoxy)phenyl}-1-methyl-1H-imidazol-4-yl)-2H-indazole]
IC50 (human STING WT (R232)): 18 nM | IC50 (STING): 140 nM

CCOc1nn(C)cc1-n1cc2c(-c3nc(-c4ccc(C(N)=O)cc4OC(F)(F)F)n(C)c3C3CC3)cccc2n1 [Example 4, 4-{5-cyclopropyl-4-[2-(3-ethoxy-1-methyl-1H-pyrazol-4-yl)-2H-indazol-4-yl]-1-methyl-1H-imidazol-2-yl}-3-(trifluoromethoxy)benzamide]
IC50 (human STING WT (R232)): 40.9 nM | IC50 (STING): 95 nM

COCc1cc(C(N)=O)ccc1-c1nc(-c2cccc3nn(-c4cn(C5CC5)nc4OC)cc23)c(C2CC2)n1C [Example 12, 4-{5-cyclopropyl-4-[2-(1-cyclopropyl-3-methoxy-1H-pyrazol-4-yl)-2H-indazol-4-yl]-1-methyl-1H-imidazol-2-yl}-3-(methoxymethyl)benzamide]
IC50 (human STING WT (R232)): 9.6 nM | IC50 (STING): 840 nM

Cn1nc(-n2cc3c(-c4nc(-c5ccc(P(C)(C)=O)cc5OC(F)(F)F)n(C)c4C4CC4)cccc3n2)cc1C(F)(F)F [Example 20, 4-{5-cyclopropyl-2-[4-(dimethylphosphoryl)-2-(trifluoromethoxy)phenyl]-1-methyl-1H-imidazol-4-yl}-2-[1-methyl-5-(trifluoromethyl)-1H-pyrazol-3-yl]-2H-indazole]
IC50 (human STING WT (R232)): 49.1 nM | IC50 (STING): 180 nM

Source: patent publication US20250333398A1, “MONOARYL AND HETARYL SUBSTITUTED INDAZOLES AND BENZIMIDAZOLES AS STING ANTAGONISTS AND THE USE THEREOF AS MEDICAMENT” (Boehringer Ingelheim International GmbH, priority 2024, published 2025)
